Measurements taken from US9439888B2, “Tetrazolones as a carboxylic acid bioisosteres” (RIGEL PHARMACEUTICALS, INC., priority 2015, dated 2016).
pEC50, pIC50: −log10 of the molar value.

Key:
[1] = biological target: T1, angiotensin II receptor type 1 (AT1) (Homo sapiens, UniProt P30556); test: AT1 antagonist activity: inhibition of response to 3 nM angiotensin-II, intracellular Ca2+ by fluorimetry; format: cell-based; conditions: HEK-293 cells expressing hAT1
T1 construct: expressed in transfected cells; host or cells: HEK-293
T1 sequence (P30556 1-359): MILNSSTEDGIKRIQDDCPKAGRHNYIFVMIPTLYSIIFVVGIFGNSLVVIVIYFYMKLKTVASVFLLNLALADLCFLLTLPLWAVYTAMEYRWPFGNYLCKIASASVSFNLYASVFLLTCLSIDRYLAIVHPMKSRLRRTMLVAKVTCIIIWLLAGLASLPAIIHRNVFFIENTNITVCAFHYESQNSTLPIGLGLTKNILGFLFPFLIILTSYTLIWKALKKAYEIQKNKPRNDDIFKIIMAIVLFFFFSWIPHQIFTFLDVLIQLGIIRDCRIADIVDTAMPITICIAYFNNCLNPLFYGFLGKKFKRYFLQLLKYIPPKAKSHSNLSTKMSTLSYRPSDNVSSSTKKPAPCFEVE

[2] = biological target: T2, retinoid X receptor alpha (RXRa) (Homo sapiens, UniProt P19793); test: RXRα agonist activity assay
T2 sequence (P19793 1-462): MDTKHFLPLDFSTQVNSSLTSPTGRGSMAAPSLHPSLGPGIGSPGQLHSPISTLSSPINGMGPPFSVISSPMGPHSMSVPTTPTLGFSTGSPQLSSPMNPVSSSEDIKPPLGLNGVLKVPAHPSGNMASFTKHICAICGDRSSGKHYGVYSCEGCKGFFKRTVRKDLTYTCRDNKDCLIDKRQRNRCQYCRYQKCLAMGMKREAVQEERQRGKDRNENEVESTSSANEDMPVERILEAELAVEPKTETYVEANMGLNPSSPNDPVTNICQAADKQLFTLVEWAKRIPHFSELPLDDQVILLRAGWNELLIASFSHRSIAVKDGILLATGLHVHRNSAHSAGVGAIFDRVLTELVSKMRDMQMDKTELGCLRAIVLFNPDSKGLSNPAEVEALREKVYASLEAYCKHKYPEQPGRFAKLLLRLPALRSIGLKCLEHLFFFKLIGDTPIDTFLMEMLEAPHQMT

pIC50 [1]	Kb [1] [nM]	pEC50 [2]	Compound
8.77	0.14	–	CCCc1nc2c(C)cc(-c3nc4ccccc4n3C)cc2n1Cc1ccc(-c2ccccc2-n2nn[nH]c2=O)cc1 [6t]
–	–	7.19	C=C(c1ccc(-n2nn[nH]c2=O)cc1)c1cc2c(cc1C)C(C)(C)CCC2(C)C [6u, 1-(4-(1-(3,5,5,8,8-pentamethyl-5,6,7,8-tetrahydronaphthalen-2-yl)vinyl)phenyl)-1,4-dihydro-5h-tetrazol-5-one]
